The record followed here is PubChem BioAssay (NCI).

As a reminder, the GI50 is the concentration at which growth is held to half of that of the control. One may read the TGI as the concentration giving total growth inhibition. Low readings indicate more potent growth arrest, high ones less potent growth arrest.

“And” between values parts separate entries of the source, which are not always exact repeats. Identical values can stand only once.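 1) Cells in 96-well plates. 2) Compound, 48 h, 5 concentrations. 3) Linear interpolation between surrounding doses. 4) Unreached endpoint = highest concentration. GI50 = concentration required for 50% inhibition of growth. TGI: concentration producing complete growth inhibition.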

Test systems include HCT-15 colon; HL-60(TB) leukemia; HT29 colon; K-562 leukemia; NCI-H522 lung; OVCAR-4 ovarian; RPMI-8226 leukemia; SF-295 CNS; SK-MEL-28 melanoma; SW-620 colon.
Common to all, as to experiment: DTP human tumour cell line panel, 48 h

Take `C[C@H]1CC(=O)[C@@]2(O)C#C/C=C\C#C[C@@H]3Nc4c(cc(O)c5c4C(=O)c4ccccc4C5=O)[C@]24O[C@]314`: the GI50 in the assay with HCT-15 colon was 0.00722 µM; with HL-60(TB) leukemia, 0.0025 µM; with HT29 colon, 0.0253 µM; in the assay on NCI-H522 lung, 0.032 µM; with OVCAR-4 ovarian it was 0.351 µM; in the assay with RPMI-8226 leukemia, 0.00313 µM. Also, the 50% growth inhibitory concentration (GI50) in the assay with SF-295 CNS was 0.0025 µM; in the assay on SK-MEL-28 melanoma it was 0.0409 µM; with SW-620 colon, 0.0059 µM. In addition, the TGI was 0.836 µM and 0.148 µM in the assay with HCT-15 colon; 0.00552 µM and 0.0052 µM with HL-60(TB) leukemia; greater than 25 µM in the assay on HT29 colon; 0.233 µM and 0.605 µM with K-562 leukemia; 0.293 µM and 0.384 µM in the assay with NCI-H522 lung; 0.648 µM and 1.92 µM in the assay on OVCAR-4 ovarian. In addition, the TGI with RPMI-8226 leukemia was 0.249 µM and 0.154 µM; in the assay on SF-295 CNS, 0.0542 µM; in the assay on SK-MEL-28 melanoma, 0.241 µM and 0.729 µM; with SW-620 colon, 0.306 µM and 0.337 µM.

As for `O=C(N/N=C\c1cc(Cl)ccc1O)N/N=C/c1cc(Cl)ccc1O`, the GI50 in the assay with HCT-15 colon is 0.676 µM; in the assay on HL-60(TB) leukemia, 6.22 µM; with HT29 colon, 9.57 µM; in the assay with K-562 leukemia, 0.572 µM; in the assay with NCI-H522 lung it was 0.616 µM; in the assay on OVCAR-4 ovarian, 0.871 µM. Also, the GI50 with RPMI-8226 leukemia was 2.79 µM; in the assay with SF-295 CNS it was 2.37 µM; in the assay on SK-MEL-28 melanoma, greater than 100 µM; in the assay with SW-620 colon, 0.807 µM. Besides, the TGI is greater than 100 µM in the assay with HCT-15 colon; greater than 100 µM in the assay on HL-60(TB) leukemia; greater than 100 µM in the assay with HT29 colon; greater than 100 µM with K-562 leukemia; 19 µM in the assay on NCI-H522 lung; greater than 100 µM with OVCAR-4 ovarian. Further, the TGI with RPMI-8226 leukemia, in the assay with SF-295 CNS, with SK-MEL-28 melanoma and in the assay with SW-620 colon was greater than 100 µM throughout.

On to `C[C@@H]1CC[C@H]2C(CN3CCN(CC4=C(C(F)(F)F)O[C@@H]5O[C@@]6(C)CC[C@H]7[C@H](C)CC[C@@H]4[C@@]57OO6)CC3)=C(C(F)(F)F)O[C@@H]3O[C@@]4(C)CC[C@@H]1[C@]32OO4`, for which the GI50 in the assay on HCT-15 colon was 1.79 µM; with HL-60(TB) leukemia it was 0.382 µM; in the assay on HT29 colon it was 1.42 µM; in the assay on K-562 leukemia, 1.09 µM; in the assay on NCI-H522 lung it was 2.78 µM; in the assay with OVCAR-4 ovarian, 3.17 µM. For the same molecule, the GI50 is 0.43 µM in the assay with RPMI-8226 leukemia, 5.01 µM in the assay on SF-295 CNS, 9.96 µM in the assay on SK-MEL-28 melanoma and 1.12 µM in the assay with SW-620 colon. For the same molecule, the TGI with HCT-15 colon was greater than 37.2 µM; in the assay on HT29 colon it was greater than 100 µM; with K-562 leukemia it was greater than 100 µM; in the assay on NCI-H522 lung it was greater than 27 µM; in the assay with OVCAR-4 ovarian, greater than 100 µM; in the assay on SF-295 CNS it was greater than 100 µM. The TGI in the assay on SK-MEL-28 melanoma and in the assay with SW-620 colon was greater than 100 µM throughout.

As for `Fc1ccc(-c2c(-c3ccncc3)n(CCN3CCOCC3)c3cccnc23)cc1`, the GI50 with HCT-15 colon, with HL-60(TB) leukemia, with HT29 colon, in the assay on K-562 leukemia, with NCI-H522 lung and with OVCAR-4 ovarian was greater than 25 µM each time. Further, the GI50 in the assay with RPMI-8226 leukemia, with SF-295 CNS, in the assay on SK-MEL-28 melanoma and with SW-620 colon was greater than 25 µM in each case. Also, the concentration for total growth inhibition (TGI) in the assay with HCT-15 colon, in the assay on HL-60(TB) leukemia, with HT29 colon, in the assay with K-562 leukemia, in the assay with NCI-H522 lung and in the assay on OVCAR-4 ovarian was greater than 25 µM in each case. For the same molecule, the TGI with RPMI-8226 leukemia, with SF-295 CNS, with SK-MEL-28 melanoma and in the assay with SW-620 colon was greater than 25 µM each time.

As for `Clc1cccc(C2SCc3nc4ccccc4n32)c1Cl` (configuration not stated), the concentration for total growth inhibition (TGI) was found to be 36.5 µM in the assay with HCT-15 colon; 20.3 µM with HL-60(TB) leukemia; 27.5 µM with HT29 colon; 45 µM in the assay on K-562 leukemia; 32.1 µM in the assay with NCI-H522 lung; 27 µM in the assay with OVCAR-4 ovarian. For the same molecule, the TGI turned out to be 90.6 µM in the assay on RPMI-8226 leukemia, 30.4 µM in the assay with SF-295 CNS, 35.9 µM in the assay on SK-MEL-28 melanoma and 30.8 µM with SW-620 colon.

In the case of `O=C(O)CNS(=O)(=O)c1ccc(NC(=O)c2cccc([N+](=O)[O-])c2)cc1`, the TGI in the assay with HCT-15 colon, in the assay on HL-60(TB) leukemia, in the assay with HT29 colon, with K-562 leukemia, in the assay on NCI-H522 lung and with OVCAR-4 ovarian was greater than 100 µM throughout. The TGI with RPMI-8226 leukemia, with SF-295 CNS, in the assay on SK-MEL-28 melanoma and in the assay on SW-620 colon was greater than 100 µM in each case.

Take `C1CCN2CC34CC(CC5CCCN(C6CCCC3N6)C54)C2C1` (configuration not stated): the TGI in the assay on HCT-15 colon, in the assay on HL-60(TB) leukemia, with HT29 colon, in the assay on K-562 leukemia, in the assay on NCI-H522 lung and in the assay on OVCAR-4 ovarian was greater than 100 µM in each case. The concentration for total growth inhibition (TGI) in the assay on RPMI-8226 leukemia, with SF-295 CNS, with SK-MEL-28 melanoma and in the assay on SW-620 colon was greater than 100 µM throughout.

Consider `Cc1cc(C(=O)NCCN(C)C)c2nc3ccccc3nc2c1`, for which the concentration for total growth inhibition (TGI) with HCT-15 colon was 27.6 µM; in the assay with HL-60(TB) leukemia, greater than 100 µM; with HT29 colon it was 19.1 µM; in the assay on K-562 leukemia, 9.8 µM; in the assay with NCI-H522 lung it was greater than 100 µM; in the assay on OVCAR-4 ovarian it was 19.5 µM. For the same molecule, the TGI in the assay with RPMI-8226 leukemia was 41.2 µM; in the assay with SF-295 CNS, greater than 27.8 µM; in the assay with SK-MEL-28 melanoma, 16.1 µM; with SW-620 colon it was greater than 37.4 µM.

Consider `C=C1C(=O)O[C@H]2[C@H](OC(C)=O)[C@@H](C)CCC/C(C)=C/CC[C@]3(CO3)[C@H](O)C[C@@H]12`, for which the GI50 in the assay with HCT-15 colon was 1.84 µM; in the assay on HL-60(TB) leukemia, 2.31 µM; in the assay with HT29 colon, 3.23 µM; in the assay on K-562 leukemia, 1.85 µM; in the assay on NCI-H522 lung, 6.22 µM; with OVCAR-4 ovarian, 6.89 µM. Also, the GI50 in the assay with RPMI-8226 leukemia is 1.84 µM; in the assay with SF-295 CNS it was 19.7 µM; in the assay on SK-MEL-28 melanoma, 2.21 µM; in the assay with SW-620 colon it was 3.24 µM. The TGI was determined as 3.76 µM in the assay with HCT-15 colon; 5.63 µM in the assay on HL-60(TB) leukemia; 11.5 µM in the assay with HT29 colon; 5.06 µM with K-562 leukemia; 20.2 µM in the assay on NCI-H522 lung; 21.9 µM in the assay with OVCAR-4 ovarian. Further, the TGI with RPMI-8226 leukemia was 5.49 µM; in the assay with SF-295 CNS, 49.3 µM; in the assay with SK-MEL-28 melanoma it was 4.8 µM; in the assay on SW-620 colon, 10.7 µM.
